Experimental data: patent US20050228016A1, “TETRAHYDROQUINOLINES FOR MODULATING THE EXPRESSION OF EXOGENOUS GENES VIA AN ECDYSONE RECEPTOR COMPLEX” (priority 2002, published 2005)

Tests used:
[1] = molecular target: T1, Bombyx mori EcR (VP16-BmEcR, CVBE) (Bombyx mori, UniProt P49881); assay: Z3 assay (HEK-293 clone Z3 with CVBE and 6x EcRE LacZ, β-galactosidase reporter); assay type: cell-based; details: 48 h, average of two wells
T1 construct: expressed in transfected cells
T1 sequence (P49881 86-606): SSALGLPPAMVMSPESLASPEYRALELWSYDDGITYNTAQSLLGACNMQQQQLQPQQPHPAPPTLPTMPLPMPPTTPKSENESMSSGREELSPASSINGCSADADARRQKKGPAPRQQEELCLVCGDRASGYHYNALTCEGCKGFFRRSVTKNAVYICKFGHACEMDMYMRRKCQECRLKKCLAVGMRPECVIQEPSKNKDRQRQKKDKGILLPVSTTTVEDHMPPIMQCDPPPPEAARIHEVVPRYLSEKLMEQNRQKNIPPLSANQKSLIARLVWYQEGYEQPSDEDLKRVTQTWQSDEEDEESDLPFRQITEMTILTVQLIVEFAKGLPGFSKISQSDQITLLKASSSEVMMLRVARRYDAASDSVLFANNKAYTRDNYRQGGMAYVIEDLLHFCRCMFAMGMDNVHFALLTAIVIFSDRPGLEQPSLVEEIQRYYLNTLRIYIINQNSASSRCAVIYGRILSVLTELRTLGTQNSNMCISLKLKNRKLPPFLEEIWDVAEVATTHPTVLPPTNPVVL
Excerpt: Dr. F. Gage provided a population of stably transformed cells containing CVBE and 6× EcRE as described in (Suhr et. al. 1998). Human 293 kidney cells, also referred to as HEK-293 cells, were sequentially infected with retroviral vectors encoding first the switch construct CVBE, and subsequently the reporter construct 6× EcRE Lac Z. The switch construct contained the coding sequence for amino acids 26-546 from Bombyx nori EcR (BE) (Iatrou) inserted in frame and downstream of the VP16 transactivation domain (VBE). A synthetic ATG start codon was placed under the control of cytomegalovirus (CVBE) immediate early promoter and flanked by long terminal repeats (LTR). The reporter-construct contained six copies of the ecdysone response element (EcRE) binding site placed upstream of LacZ and flanked on both sides with LTR sequences (6× EcRE).
Dilution cloning was used to isolate individual clones. Clones were selected using 450 μg/ml G418 and 100 ng/ml puromycin. Individual clones were evaluated based on their response in the presence and absence of test ligands.
Human 293 kidney cells stably transformed with CVBE and 6× EcRE lack were maintained in Minimum Essential Medium (Mediates, 10-010-CV) containing 10%.FBS (Life Technologies, 26140-087),[…] G418 (Mediates, 30-234-CR), and […] (Sigma, P-7255), at 37° C. in an atmosphere containing 5% CO2 and were subculture when they reached 75% confluence.
Z3 cells were seeded into 96-well tissue culture plates at a concentration of 2.5×10^3 cells per well and incubated at 37° C. in 5% CO2 for twenty-four hours. Stock solutions of ligands were prepared in DMSO. Ligand stock solutions were diluted 100.fold in media and 50 μL of this diluted ligand solution (33 μM) was added to cells.
Reporter gene expression was evaluated 48 hours after treatment of cells, β-galactosidase activity was measured using Gal Screen™ bioluminescent reporter gene assay system from Tropix (GSY1000).
Flanking both constructs are long terminal repeats, G418 and puromycin are selectable markers, CMV is the cytomegalovirus promoter, VBE is coding sequence for amino acids 26-546 from Bombyx mori EcR inserted downstream of the VP16 transactivation domain, 6× EcRE is six copies of the ecdysone response element, lacZ encodes for the reporter enzyme β-galactosidase.

Gal4DBD/AaEcR (DEF) = molecular target: T2, Gal4DBD/AaEcR (DEF) (Aedes aegypti, UniProt P49880); assay: cell-based; assay type: cell-based; details: 33 μM; 3T3 cells; 48 h; average of two wells
T2 construct: The wildtype D, E, and F domains from mosquito Aedes aegypti EcR; expressed in transfected cells; host or cells: 3T3 cells
T2 sequence (P28704 286-520 A311G/G315S/G445S/I449V): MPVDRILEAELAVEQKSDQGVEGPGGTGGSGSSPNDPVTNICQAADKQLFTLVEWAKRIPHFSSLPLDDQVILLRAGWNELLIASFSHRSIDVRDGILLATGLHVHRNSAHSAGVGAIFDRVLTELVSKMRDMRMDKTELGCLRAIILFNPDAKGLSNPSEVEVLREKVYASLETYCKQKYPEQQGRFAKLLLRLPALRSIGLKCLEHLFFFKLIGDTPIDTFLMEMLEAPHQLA
T2 sequence (P49880 405-776): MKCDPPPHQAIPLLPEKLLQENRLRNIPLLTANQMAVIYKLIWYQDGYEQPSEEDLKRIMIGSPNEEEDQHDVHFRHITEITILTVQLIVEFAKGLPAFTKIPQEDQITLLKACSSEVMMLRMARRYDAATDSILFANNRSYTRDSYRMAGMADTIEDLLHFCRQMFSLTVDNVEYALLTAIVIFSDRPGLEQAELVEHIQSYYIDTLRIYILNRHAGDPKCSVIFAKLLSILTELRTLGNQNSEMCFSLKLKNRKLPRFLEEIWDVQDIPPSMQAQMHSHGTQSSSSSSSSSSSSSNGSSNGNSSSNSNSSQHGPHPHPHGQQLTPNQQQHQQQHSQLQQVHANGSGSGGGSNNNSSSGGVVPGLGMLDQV
Method in brief: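 Mouse 3T3 cells transiently co-transfected with Gal4DBD/AaEcR (DEF) and pFRLuc (5× GAL4 response element, firefly luciferase reporter). Ligand added in serum medium 4 h after transfection; single-dose testing at 33 μM.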

Structure (SMILES) | Fold Induction Average, Z3V1 Assay 33 μM [1] [fold] | Fold Induction Average, AA_3T3V1 Assay 33 μM (Gal4DBD/AaEcR (DEF)) [fold]
COc1cccc(C(=O)N2c3ccc(C)cc3C(Nc3ccc(C)cc3)CC2C)c1C (stereo not shown) [Compound I-54] | 7 | 35
CC1CC(Nc2ccc(F)cc2)c2cc(F)ccc2N1C(=O)c1ccccc1F (stereo not shown) [Compound I-55] | 10 | 78
Cc1ccccc1C(=O)N1c2ccc(F)cc2C(Nc2ccc(F)cc2)CC1C (stereo not shown) [Compound I-56] | 8 | 158
COc1ccccc1C(=O)N1c2ccc(F)cc2C(Nc2ccc(F)cc2)CC1C (stereo not shown) [Compound I-57] | 1 | 4
CC1CC(Nc2ccccc2)c2ccccc2N1C(=O)c1ccc(Cl)cc1 (stereo not shown) [Compound I-61] | 4 | 216
CCc1ccc(C(=O)N2c3ccccc3C(Nc3ccccc3)CC2C)cc1 (stereo not shown) [Compound I-62] | 43 | 744
Cc1ccc(NC2CC(C)N(C(=O)c3ccc(Cl)cc3)c3ccc(C)cc32)cc1 (stereo not shown) [Compound I-63] | 1 | 812
COc1ccc(C(=O)N2c3ccccc3C(Nc3ccccc3)CC2C)cc1 (stereo not shown) [Compound I-95] | 1 | 11
Cc1ccc(C(=O)N2c3ccccc3C(Nc3ccccc3)CC2C)cc1 (stereo not shown) [Compound I-96] | 1 | 121
CC1CC(Nc2ccccc2)c2ccccc2N1C(=O)c1ccccc1 (stereo not shown) [Compound I-97] | 1 | 37
COc1ccc(C(=O)N2c3ccc(F)cc3C(Nc3ccc(F)cc3)CC2C)cc1 (stereo not shown) [Compound I-101] | 2 | 561
Cc1ccc(C(=O)N2c3ccc(F)cc3C(Nc3ccc(F)cc3)CC2C)cc1 (stereo not shown) [Compound I-102] | 3 | 601
CC1CC(Nc2ccccc2)c2ccccc2N1C(=O)c1ccc(Cl)nc1 (stereo not shown) [Compound I-103] | 4 | 341
CC1CC(Nc2ccccc2)c2ccccc2N1C(=O)c1ccc(Cl)c(F)c1 (stereo not shown) [Compound I-105] | 30 | 369
CC1CC(Nc2ccccc2)c2ccccc2N1C(=O)c1ccnc(Cl)c1 (stereo not shown) [Compound I-106] | 83 | 1053
CCc1c(OC)cccc1C(=O)N1c2ccccc2C(Nc2ccccc2)CC1C (stereo not shown) [Compound I-107] | 6 | 636

Structure (SMILES) | Fold Induction Average, Z3V1 Assay 33 μM [1] [fold] | Fold Induction Average, AA_3T3V1 Assay 33 μM (Gal4DBD/AaEcR (DEF)) [fold]
Cc1ccc(NC2CC(C)N(C(=O)c3ccno3)c3ccc(C)cc32)cc1 (stereo not shown) [Compound I-109] | 1 | 33
Cc1ccc(NC2CC(C)N(C(=O)c3ccc(Cl)c(F)c3)c3ccc(C)cc32)cc1 (stereo not shown) [Compound I-110] | 2 | 782
Cc1ccc(NC2CC(C)N(C(=O)c3ccnc(Cl)c3)c3ccc(C)cc32)cc1 (stereo not shown) [Compound I-111] | 16 | 527
CCCC(=O)N1c2ccccc2C(N(C(=O)c2ccccc2)c2ccc(F)cc2)CC1C (stereo not shown) [Compound I-126] | 1 | 1
COc1cccc(NC2CC(C)N(C(=O)c3ccccc3)c3ccccc32)c1 (stereo not shown) [Compound I-137] | 1 | 64
COc1cccc(C(=O)N(c2ccccc2)C2CC(C)N(C(C)=O)c3ccccc32)c1 (stereo not shown) [Compound I-142] | 1 | 1
Cc1ccc(C(=O)N2c3ccccc3C(N(C(=O)c3ccc(F)cc3)c3ccccc3)CC2C)cc1 (stereo not shown) [Compound I-143] | 1 | 27
CC1CC(Nc2ccccc2)c2ccccc2N1C(=O)COc1ccc(F)cc1 (stereo not shown) [Compound I-159] | 1 | 12
CC1CC(Nc2ccccc2)c2ccccc2N1C(=O)c1ccc(Cl)c(Cl)c1 (stereo not shown) [Compound I-165] | 1 | 1
CC1CC(Nc2ccccc2)c2ccccc2N1C(=O)c1ccc(I)cc1 (stereo not shown) [Compound I-168] | 3 | 401
CC1CC(Nc2ccccc2)c2ccccc2N1C(=O)CCC1CCCCC1 (stereo not shown) [Compound I-170] | 1 | 2
CCOC(=O)C(=O)N1c2ccccc2C(Nc2ccccc2)CC1C (stereo not shown) [Compound I-171] | 1 | 1
CC1CC(Nc2ccccc2)c2ccccc2N1C(=O)c1ccc(NS(C)(=O)=O)cc1 (stereo not shown) [Compound I-175] | 5 | 1
CC(C)C(=O)N1c2ccccc2C(N(C(=O)c2ccccc2)c2ccc([N+](=O)[O-])cc2)CC1C (stereo not shown) [Compound I-178] | 1 | 1
CCC(=O)N1c2ccccc2C(N(C(=O)c2ccc([N+](=O)[O-])cc2)c2ccccc2)CC1C (stereo not shown) [Compound I-183] | 2 | 1
Cc1ccc(C(=O)N2c3ccc(F)cc3C(N(C(=O)c3ccc(C)c(F)c3)c3ccc(F)cc3)CC2C)cc1F (stereo not shown) [Compound I-197] | 1 | 686
